Results: patent US11793849B2, “Method of Chinese herbal medicine extract used for treating multiple diseases caused by drug resistant bacteria infection” (priority 2016, dated 2023)
≈ marks a conversion by molar mass, not a printed value. Where two headings read alike, the source gives them in different places.

Key:
[1] = test system: ATCC27853; assay: MIC determination, control strain; format: cell-based
[2] = test system: MDRPA; assay: Checkerboard assay (combined-use MIC, FIC); format: cell-based, Pseudomonas aeruginosa; settings: for FIC, all strains / MIC50 of the antibiotic after combined use / MIC90 of the antibiotic after combined use / reduction of the antibiotic's MIC50 vs single use / reduction of the antibiotic's MIC90 vs single use / share of strains with FIC ≤ 0.5: 20 MDRPAs
Experimental: Test methods of the sensibilization effects of the test product to similar antibiotics: it is operated by referring to a checkerboard assay recommended by NCCLS.
The checkerboard assay is performed in a 96-pore sterile culture plate.
Calculation of a Fractional Inhibitory Concentration (FIC): FIC=S20b combined-use MIC/S20b single-use MIC+antibiotic combined-use MIC/antibiotic single-use MIC. By calculating the FIC, the combined antibacterial interaction between the EA and the antibiotic is evaluated, with synergistic effect for FIC≤0.5, additive effect for 0.5<FIC≤1, indifferent effect for 1<FIC≤2 and antagonistic effect for FIC>2. According to a sterile growth pore, the optimum concentration ratio between the EA and the antibiotic is founded out. At last, the effect of the EA to strengthen the efficacy of the antibiotic is evaluated.

[3] = antibiotic with 10% ethanol extract
[4] = antibiotic with 60% ethanol extract
[5] = antibiotic with 95% ethanol extract
[6] = antibiotic with EA (water extract)

MIC ([1]; EA=P. clypearia 10% ethanol extract, read-out: MIC (single use)): 8 µg/mL (≈ 12.4 µM)
MIC ([1]; EA=P. clypearia water extract, read-out: MIC (single use)): 8 µg/mL (≈ 12.4 µM)
MIC ([1]; single use, EA = 60% ethanol extract, read-out: MIC): 8 µg/mL (≈ 12.4 µM)
MIC ([1]; single use, EA = 95% ethanol extract, read-out: MIC): 8 µg/mL (≈ 12.4 µM)
MIC50 of the antibiotic after combined use [2, 3]: 4 µg/mL
MIC90 of the antibiotic after combined use [2, 3]: 256 µg/mL
reduction of the antibiotic's MIC50 vs single use [2, 3]: 93.75%
reduction of the antibiotic's MIC90 vs single use [2, 3]: 50%
MIC50 of the antibiotic after combined use [2, 4]: 4 µg/mL
MIC90 of the antibiotic after combined use [2, 4]: 256 µg/mL
reduction of the antibiotic's MIC50 vs single use [2, 4]: 93.75%
reduction of the antibiotic's MIC90 vs single use [2, 4]: 50%
MIC50 of the antibiotic after combined use [2, 5]: 4 µg/mL
MIC90 of the antibiotic after combined use [2, 5]: 128 µg/mL
reduction of the antibiotic's MIC50 vs single use [2, 5]: 93.75%
reduction of the antibiotic's MIC90 vs single use [2, 5]: 75%
MIC50 of the antibiotic after combined use [2, 6]: 0.5 µg/mL
MIC90 of the antibiotic after combined use [2, 6]: 256 µg/mL
reduction of the antibiotic's MIC50 vs single use [2, 6]: 99.2%
reduction of the antibiotic's MIC90 vs single use [2, 6]: 50%
combined-use MIC ([2]; strain P1, EA (P. clypearia 10% ethanol extract) combined with CFP): 32 µg/mL
combined-use MIC ([2]; strain P1, EA (P. clypearia water extract) combined with CFP): 32 µg/mL
combined-use MIC ([2]; strain P2, EA (P. clypearia 10% ethanol extract) combined with CFP): 128 µg/mL
combined-use MIC ([2]; strain P2, EA (P. clypearia water extract) combined with CFP): 128 µg/mL
combined-use MIC ([2]; strain P3, EA (P. clypearia 10% ethanol extract) combined with CFP): 2 µg/mL
combined-use MIC ([2]; strain P3, EA (P. clypearia water extract) combined with CFP): 2 µg/mL
combined-use MIC ([2]; strain P4, EA (P. clypearia 10% ethanol extract) combined with CFP): 4 µg/mL
combined-use MIC ([2]; strain P4, EA (P. clypearia water extract) combined with CFP): 4 µg/mL
combined-use MIC ([2]; strain P5, EA (P. clypearia 10% ethanol extract) combined with CFP): 256 µg/mL
combined-use MIC ([2]; strain P5, EA (P. clypearia water extract) combined with CFP): 256 µg/mL
combined-use MIC ([2]; strain P6, EA (P. clypearia 10% ethanol extract) combined with CFP): 256 µg/mL
combined-use MIC ([2]; strain P6, EA (P. clypearia water extract) combined with CFP): 256 µg/mL
combined-use MIC ([2]; strain P7, EA (P. clypearia 10% ethanol extract) combined with CFP): 8 µg/mL
combined-use MIC ([2]; strain P7, EA (P. clypearia water extract) combined with CFP): 16 µg/mL
combined-use MIC ([2]; strain P8, EA (P. clypearia 10% ethanol extract) combined with CFP): 0.5 µg/mL
combined-use MIC ([2]; strain P8, EA (P. clypearia water extract) combined with CFP): 0.5 µg/mL
combined-use MIC ([2]; strain P9, EA (P. clypearia 10% ethanol extract) combined with CFP): 32 µg/mL
combined-use MIC ([2]; strain P9, EA (P. clypearia water extract) combined with CFP): 32 µg/mL
combined-use MIC ([2]; strain P10, EA (P. clypearia 10% ethanol extract) combined with CFP): 2 µg/mL
combined-use MIC ([2]; strain P10, EA (P. clypearia water extract) combined with CFP): 0.5 µg/mL
combined-use MIC ([2]; strain P11, EA (P. clypearia 10% ethanol extract) combined with CFP): 4 µg/mL
combined-use MIC ([2]; strain P11, EA (P. clypearia water extract) combined with CFP): 4 µg/mL
combined-use MIC ([2]; strain P12, EA (P. clypearia 10% ethanol extract) combined with CFP): 2 µg/mL
combined-use MIC ([2]; strain P12, EA (P. clypearia water extract) combined with CFP): 0.5 µg/mL
combined-use MIC ([2]; strain P13, EA (P. clypearia 10% ethanol extract) combined with CFP): 32 µg/mL
combined-use MIC ([2]; strain P13, EA (P. clypearia water extract) combined with CFP): 32 µg/mL
combined-use MIC ([2]; strain P14, EA (P. clypearia 10% ethanol extract) combined with CFP): 0.25 µg/mL
combined-use MIC ([2]; strain P14, EA (P. clypearia water extract) combined with CFP): 0.5 µg/mL
combined-use MIC ([2]; strain P15, EA (P. clypearia 10% ethanol extract) combined with CFP): 8 µg/mL
combined-use MIC ([2]; strain P15, EA (P. clypearia water extract) combined with CFP): 16 µg/mL
combined-use MIC ([2]; strain P16, EA (P. clypearia 10% ethanol extract) combined with CFP): 256 µg/mL
combined-use MIC ([2]; strain P16, EA (P. clypearia water extract) combined with CFP): 256 µg/mL
combined-use MIC ([2]; strain P17, EA (P. clypearia 10% ethanol extract) combined with CFP): 0.5 µg/mL
combined-use MIC ([2]; strain P17, EA (P. clypearia water extract) combined with CFP): 0.5 µg/mL
combined-use MIC ([2]; strain P18, EA (P. clypearia 10% ethanol extract) combined with CFP): 128 µg/mL
combined-use MIC ([2]; strain P18, EA (P. clypearia water extract) combined with CFP): 128 µg/mL
combined-use MIC ([2]; strain P19, EA (P. clypearia 10% ethanol extract) combined with CFP): 0.5 µg/mL
combined-use MIC ([2]; strain P19, EA (P. clypearia water extract) combined with CFP): 0.5 µg/mL
combined-use MIC ([2]; strain P20, EA (P. clypearia 10% ethanol extract) combined with CFP): 1 µg/mL
combined-use MIC ([2]; strain P20, EA (P. clypearia water extract) combined with CFP): 0.5 µg/mL
Structure (SMILES): CCN1CCN(C(=O)N[C@@H](C(=O)N[C@@H]2C(=O)N3C(C(=O)O)=C(CSc4nnnn4C)CS[C@H]23)c2ccc(O)cc2)C(=O)C1=O [CFP, Cefoperazone]
FIC, all strains [2, 3]: ≤ 2
share of strains with FIC ≤ 0.5 [2, 3]: 35%
FIC, all strains [2, 4]: ≤ 2
share of strains with FIC ≤ 0.5 [2, 4]: 20%
FIC, all strains [2, 5]: ≤ 2
share of strains with FIC ≤ 0.5 [2, 5]: 40%
FIC, all strains [2, 6]: ≤ 2
share of strains with FIC ≤ 0.5 [2, 6]: 35%
